How the values were obtained:
[1] = target: T1, hDUOX2_1–599 (Homo sapiens, UniProt Q9NRD8); experiment: heme titration, difference absorbance spectroscopy; type: binding
T1 sequence (Q9NRD8 1-599): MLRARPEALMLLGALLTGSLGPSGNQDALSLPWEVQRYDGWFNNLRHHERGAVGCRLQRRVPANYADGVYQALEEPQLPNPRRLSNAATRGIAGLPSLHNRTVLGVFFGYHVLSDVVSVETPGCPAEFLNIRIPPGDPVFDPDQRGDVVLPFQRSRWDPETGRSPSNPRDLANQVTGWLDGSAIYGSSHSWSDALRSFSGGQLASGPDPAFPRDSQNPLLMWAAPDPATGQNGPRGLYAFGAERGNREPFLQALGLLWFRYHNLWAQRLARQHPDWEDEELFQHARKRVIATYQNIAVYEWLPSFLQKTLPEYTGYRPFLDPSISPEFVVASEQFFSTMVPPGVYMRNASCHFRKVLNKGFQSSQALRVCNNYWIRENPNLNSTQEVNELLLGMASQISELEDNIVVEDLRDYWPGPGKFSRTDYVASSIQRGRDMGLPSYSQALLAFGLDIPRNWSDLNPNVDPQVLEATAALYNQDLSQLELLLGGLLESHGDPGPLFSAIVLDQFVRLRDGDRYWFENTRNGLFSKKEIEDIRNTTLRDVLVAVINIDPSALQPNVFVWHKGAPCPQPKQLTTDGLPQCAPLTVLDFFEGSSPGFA

[2] = target: T2, hDUOX1_1–593 (Homo sapiens, UniProt Q9NRD9); experiment: heme titration, difference absorbance spectroscopy; type: binding
T2 sequence (Q9NRD9 1-593): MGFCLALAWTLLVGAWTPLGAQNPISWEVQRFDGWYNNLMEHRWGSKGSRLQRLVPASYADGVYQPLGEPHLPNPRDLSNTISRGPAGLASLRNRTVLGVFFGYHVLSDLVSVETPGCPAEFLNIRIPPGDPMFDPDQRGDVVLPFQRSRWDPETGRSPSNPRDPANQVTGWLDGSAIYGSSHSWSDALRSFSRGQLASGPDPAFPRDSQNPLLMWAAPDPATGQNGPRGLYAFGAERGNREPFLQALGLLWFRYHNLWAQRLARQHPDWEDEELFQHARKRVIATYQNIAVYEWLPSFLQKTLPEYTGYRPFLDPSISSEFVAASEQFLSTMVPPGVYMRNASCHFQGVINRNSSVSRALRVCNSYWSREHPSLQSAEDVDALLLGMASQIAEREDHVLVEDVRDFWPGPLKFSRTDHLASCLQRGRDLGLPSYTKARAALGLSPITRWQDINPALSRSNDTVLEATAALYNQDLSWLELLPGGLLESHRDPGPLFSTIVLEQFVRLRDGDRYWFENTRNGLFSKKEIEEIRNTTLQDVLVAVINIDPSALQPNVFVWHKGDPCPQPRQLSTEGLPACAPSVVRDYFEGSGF

- Kd [1]: 2400 ± 400 nM
- Kd [2]: 2700 ± 100 nM
Structure (SMILES): C=CC1=C(C)C2=Cc3c(C=C)c(C)c4[n]3[Fe]([Cl])[n]3c(c(C)c(CCC(=O)O)c3=CC3=NC(=C4)C(C)=C3CCC(=O)O)=CC1=N2 [heme]

Reference: PMC3139011 (Archives of biochemistry and biophysics, 2011)
